Source: ChEMBL document CHEMBL6096661, “Synthesis, biological evaluation and mechanism study of a novel indole-pyridine chalcone derivative as antiproliferative agent against tumor cells through dual targeting tubulin and HK2” (Eur J Med Chem, 2025)
Calls of active or inactive are those of the source. The rule behind the calls is not given here.

Assays:
MDA-MB-231 = test: Antiproliferative activity against human MDA-MB-231 cells assessed as reduction in cell proliferation incubated for 48 hrs by CCK-8 assay; format: functional, cell-based; settings: MDA-MB-231, 48 h
SW480 = test: Antiproliferative activity against human SW480 cells assessed as inhibition of cell growth incubated for 48 hrs by CCK-8 assay; format: functional, cell-based; settings: SW480, 48 h
HCT-116 = test: Antiproliferative activity against human HCT-116 cells assessed as inhibition of cell growth incubated for 48 hrs by CCK-8 assay; format: functional, cell-based; settings: HCT-116, 48 h
HT-1080 = test: Antiproliferative activity against human HT-1080 cells assessed as inhibition of cell growth incubated for 48 hrs by CCK-8 assay; format: functional, cell-based; settings: HT-1080, 48 h
LoVo = test: Antiproliferative activity against human LoVo cells assessed as inhibition of cell growth incubated for 48 hrs by CCK-8 assay; format: functional, cell-based
[1] = target: T1, Hexokinase-2 (Homo sapiens) (UniProt P52789); test: Inhibition of human HK2 transfected in Escherichia coli BL21 (DE) incubated for 10 mins
T1 sequence (whole entry): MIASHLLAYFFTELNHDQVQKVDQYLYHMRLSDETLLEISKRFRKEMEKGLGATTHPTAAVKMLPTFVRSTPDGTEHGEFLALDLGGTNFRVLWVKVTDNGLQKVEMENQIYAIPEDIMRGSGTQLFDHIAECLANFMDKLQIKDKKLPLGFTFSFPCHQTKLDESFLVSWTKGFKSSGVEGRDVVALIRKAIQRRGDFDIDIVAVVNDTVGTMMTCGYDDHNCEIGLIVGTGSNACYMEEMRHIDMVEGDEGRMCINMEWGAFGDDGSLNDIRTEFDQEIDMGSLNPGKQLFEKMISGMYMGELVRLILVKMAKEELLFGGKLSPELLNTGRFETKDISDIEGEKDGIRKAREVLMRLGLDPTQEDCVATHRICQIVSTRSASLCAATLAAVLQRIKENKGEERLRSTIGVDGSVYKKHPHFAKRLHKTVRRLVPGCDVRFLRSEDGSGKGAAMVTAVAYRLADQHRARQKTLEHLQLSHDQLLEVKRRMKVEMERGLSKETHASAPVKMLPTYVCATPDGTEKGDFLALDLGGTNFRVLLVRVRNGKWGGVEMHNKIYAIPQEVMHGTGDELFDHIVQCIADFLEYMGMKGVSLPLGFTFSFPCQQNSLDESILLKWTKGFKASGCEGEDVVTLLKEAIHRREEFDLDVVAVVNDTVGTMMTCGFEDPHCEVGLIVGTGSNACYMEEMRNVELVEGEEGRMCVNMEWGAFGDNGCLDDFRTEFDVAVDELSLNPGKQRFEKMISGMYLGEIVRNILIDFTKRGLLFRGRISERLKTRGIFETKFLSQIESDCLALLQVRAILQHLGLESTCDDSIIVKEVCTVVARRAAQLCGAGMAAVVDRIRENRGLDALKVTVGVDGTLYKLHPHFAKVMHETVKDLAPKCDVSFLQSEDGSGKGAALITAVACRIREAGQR

Structure (SMILES) | IC50 (MDA-MB-231) [µM] | also measured
O=C(/C=C/c1cn(S(=O)(=O)c2ccc(C(F)(F)F)cc2)c2ccc(N3CCOCC3)cc12)c1ccncc1 | 4.81 | 
COc1ccc2c(c1)c(/C=C/C(=O)c1ccncc1)cn2S(=O)(=O)c1ccc(C)cc1 | 3.81 | 
O=C(/C=C/c1cn(S(=O)(=O)c2ccc([N+](=O)[O-])cc2)c2ccc(N3CCOCC3)cc12)c1ncccn1 | 1.81 | IC50 (SW480): 2.03 µM; IC50 (HCT-116): 3.46 µM; IC50 (HT-1080): 1.19 µM; IC50 (LoVo): 1.3 µM
O=C(/C=C/c1cn(S(=O)(=O)c2cccc3ccccc23)c2ccc(N3CCOCC3)cc12)c1ccncc1 | 45.4 | 
Cc1[nH]c2ccc(N3CCOCC3)cc2c1/C=C/C(=O)c1cccnc1 | 42.5 | 
N#Cc1ccc(S(=O)(=O)n2cc(/C=C/C(=O)c3ccncc3)c3cc(N4CCOCC4)ccc32)cc1 | 5.48 | 
c1cc(C2=NNC(c3c[nH]c4ccc(N5CCOCC5)cc34)C2)ccn1 (centres undefined) | 180 | 
O=C(/C=C/c1cn(S(=O)(=O)c2ccc([N+](=O)[O-])cc2)c2ccc(N3CCOCC3)cc12)c1ccc(N2CCCCC2)nc1 | 151 | 
O=C(/C=C/c1cn(S(=O)(=O)c2ccc([N+](=O)[O-])cc2)c2ccc(N3CCCCC3)cc12)c1cccnc1 | 0.816 | IC50 (SW480): 0.999 µM; IC50 (HCT-116): 3.19 µM; IC50 (HT-1080): 0.751 µM; IC50 (LoVo): 0.765 µM
O=C(/C=C/c1cn(S(=O)(=O)c2ccc3ccccc3c2)c2ccc(N3CCOCC3)cc12)c1ccncc1 | 12.8 | 
O=C(/C=C/c1cn(S(=O)(=O)Cc2ccccc2)c2ccc(N3CCOCC3)cc12)c1ccncc1 | 2.5 | 
O=C(/C=C/c1cn(Cc2ccccc2)c2ccc(N3CCOCC3)cc12)c1ccncc1 | 148 | 
COc1ccc(C(=O)/C=C/c2cn(S(=O)(=O)c3ccc([N+](=O)[O-])cc3)c3ccc(N4CCOCC4)cc23)cn1 | 73.9 | 
Cc1ccc(S(=O)(=O)n2cc(C=O)c3cc(N4CCOCC4)ccc32)cc1 | 15.9 | 
O=C(/C=C/c1cn(S(=O)(=O)c2ccccc2)c2ccc(N3CCOCC3)cc12)c1ccncc1 | 7.29 | 
COc1ccc(S(=O)(=O)n2cc(/C=C/C(=O)c3ccncc3)c3cc(N4CCOCC4)ccc32)cc1 | 7.58 | 
CC(C)(C)c1ccc(S(=O)(=O)n2cc(/C=C/C(=O)c3ccncc3)c3cc(N4CCOCC4)ccc32)cc1 | 7.98 | 
COc1cc(C(=O)/C=C/c2cn(CO)c3ccc(N4CCOCC4)cc23)cc(OC)c1OC | 12.5 | 
O=C(/C=C/c1cn(S(=O)(=O)c2ccc([N+](=O)[O-])cc2)c2ccc(N3CCOCC3)cc12)c1ccccc1 | 23.9 | 
C/C(=C\c1c[nH]c2ccc(N3CCOCC3)cc12)C(=O)c1cccnc1 | 56.6 | 
O=C(/C=C/c1cn(C(=O)c2ccccc2)c2ccc(N3CCOCC3)cc12)c1ccncc1 | 7.7 | 
Cc1ccc(S(=O)(=O)n2cc(/C=C/C(=O)c3ccncc3)c3cc(N4CCOCC4)ccc32)cc1 | 3.51 | 
COc1cc(C(=O)/C=C/c2cn(C)c3ccc(N4CCOCC4)cc23)cc(OC)c1OC | 12.1 | 
Cc1ccc(C(=O)/C=C/c2cn(S(=O)(=O)c3ccc([N+](=O)[O-])cc3)c3ccc(N4CCOCC4)cc23)c(C)n1 | 1.07 | IC50 (SW480): 0.655 µM; IC50 (HCT-116): 1.13 µM; IC50 (HT-1080): 0.754 µM; IC50 (LoVo): 0.221 µM
O=C(/C=C/c1cn(S(=O)(=O)c2ccc(F)cc2)c2ccc(N3CCOCC3)cc12)c1ccncc1 | 5.48 | 
O=C(/C=C/c1cn(S(=O)(=O)c2ccc([N+](=O)[O-])cc2)c2ccc(N3CCOCC3)cc12)c1ccccn1 | 0.915 | IC50 (SW480): 1.08 µM; IC50 (HCT-116): 1.04 µM; IC50 (HT-1080): 0.793 µM; IC50 (LoVo): 0.74 µM
O=C(/C=C/c1cn(S(=O)(=O)c2ccc(I)cc2)c2ccc(N3CCOCC3)cc12)c1ccncc1 | 20.5 | 
COc1cc2c(c(OC)c1OC)-c1ccc(OC)c(=O)cc1[C@@H](NC(C)=O)CC2 [COLCHICINE] | 2.2 | inhibition [1]: inactive

Structure (SMILES) | IC50 (MDA-MB-231) [µM] | also measured
O=C(/C=C/c1cn(S(=O)(=O)c2cccnc2)c2ccc(N3CCOCC3)cc12)c1ccncc1 | 2.89 | 
Cc1ccc(C(=O)/C=C/c2cn(S(=O)(=O)c3ccc([N+](=O)[O-])cc3)c3ccc(N4CCOCC4)cc23)cn1 | 6.25 | 
COc1cc(C(=O)/C=C/c2cn(S(=O)(=O)c3ccc(C)cc3)c3ccc(N4CCOCC4)cc23)cc(OC)c1OC | 19.9 | 
COc1ccc(C(=O)/C=C/c2cn(S(=O)(=O)c3ccc([N+](=O)[O-])cc3)c3ccc(N4CCOCC4)cc23)c(OC)n1 | 416 | 
O=C(/C=C/c1cn(S(=O)(=O)c2ccc([N+](=O)[O-])cc2)c2ccc(N3CCOCC3)cc12)c1cncnc1 | 1.59 | IC50 (SW480): 0.716 µM; IC50 (HCT-116): 1.57 µM; IC50 (HT-1080): 0.469 µM; IC50 (LoVo): 0.679 µM
O=C(/C=C/c1cn(S(=O)(=O)c2ccc([N+](=O)[O-])cc2)c2cc(N3CCOCC3)ccc12)c1cccnc1 | 0.857 | IC50 (SW480): 0.718 µM; IC50 (HCT-116): 1.7 µM; IC50 (HT-1080): 0.773 µM; IC50 (LoVo): 0.792 µM
CC(C)(C)OC(=O)n1cc(/C=C/C(=O)c2ccncc2)c2cc(N3CCOCC3)ccc21 | 7.52 | 
O=C(/C=C/c1cn(S(=O)(=O)c2ccc([N+](=O)[O-])cc2)c2ccc(N3CCOCC3)cc12)c1cnc2ccccc2c1 | 104 | 
COc1cc(C(=O)/C=C/c2cn(S(=O)(=O)c3ccc([N+](=O)[O-])cc3)c3ccc(N4CCOCC4)cc23)cc(OC)c1OC | 15.6 | 
O=C(/C=C/c1c[nH]c2ccc(N3CCOCC3)cc12)c1ccncc1 | 39.3 | 
COc1cc(C(=O)/C=C/c2c[nH]c3ccc(N4CCOCC4)cc23)cc(OC)c1OC | 11.2 | 
c1cc(C2=NOC(c3c[nH]c4ccc(N5CCOCC5)cc34)C2)ccn1 (centres undefined) | 200 | 
O=Cc1c[nH]c2ccc(N3CCOCC3)cc12 | 88.6 | 
CC(=O)n1cc(/C=C/C(=O)c2ccncc2)c2cc(N3CCOCC3)ccc21 | 7.77 | 
O=C(/C=C/c1cn(S(=O)(=O)c2ccc([N+](=O)[O-])cc2)c2ccc(N3CCOCC3)cc12)c1cncc2ccccc12 | 8.7 | 
O=[N+]([O-])c1ccc(S(=O)(=O)n2cc(C3CC(c4ccncc4)=NO3)c3cc(N4CCOCC4)ccc32)cc1 (centres undefined) | 150 | 
Cc1ccc(S(=O)(=O)n2cc(/C=C/C(=O)c3ccncc3)c3ccccc32)cc1 | 8.49 | 
O=C(/C=C/c1cn(S(=O)(=O)c2cccs2)c2ccc(N3CCOCC3)cc12)c1ccncc1 | 7.53 | 
C/C(=C\c1cn(S(=O)(=O)c2ccc([N+](=O)[O-])cc2)c2ccc(N3CCOCC3)cc12)C(=O)c1cccnc1 | 43.1 | 
O=C(/C=C/c1cn(S(=O)(=O)c2ccc(Br)cc2)c2ccc(N3CCOCC3)cc12)c1ccncc1 | 9.53 | 
c1cncc(C2=NOC(c3c[nH]c4ccc(N5CCOCC5)cc34)C2)c1 (centres undefined) | 90.3 | 
O=C(/C=C/c1cn(S(=O)(=O)c2ccc([N+](=O)[O-])cc2)c2ccc(N3CCOCC3)cc12)c1ccco1 | 27.1 | 
O=C(/C=C/c1cn(S(=O)(=O)c2ccc(Cl)cc2)c2ccc(N3CCOCC3)cc12)c1ccncc1 | 7.19 | 
O=C(/C=C/c1cn(S(=O)(=O)c2ccc([N+](=O)[O-])cc2)c2ccc(N3CCOCC3)cc12)c1ccncc1 | 1.53 | IC50 (SW480): 1.08 µM; IC50 (HCT-116): 1.85 µM; IC50 (HT-1080): 0.681 µM; IC50 (LoVo): 0.392 µM
O=C(/C=C/c1cn(S(=O)(=O)c2ccc([N+](=O)[O-])cc2)c2ccc(N3CCOCC3)cc12)c1nccs1 | 8 | 
O=C(/C=C/c1cn(S(=O)(=O)c2ccc([N+](=O)[O-])cc2)c2ccc(N3CCSCC3)cc12)c1cccnc1 | 3.94 | 
COc1cc(C(=O)/C=C/c2cn(C(=O)c3cc(OC)c(OC)c(OC)c3)c3ccc(N4CCOCC4)cc23)cc(OC)c1OC | 13.8 | 
